Results from patent publication EP1674466A1, “2,5- and 2,6-disubstituted benzazole analogues useful as protein kinase inhibitors” (4SC AG, priority 2004, dated 2006).

Molecular target: at least one kinase selected from Aurora A, Aurora B, EGF-R, ERBB2, PDGFR, IGF1-R, VEGF-R2, VEGF-R3, EPHB4, Tie2, and SRC
Test: 33PanQinase Activity Assay (protein kinase assay)
Type: biochemical
Conditions: on at least one kinase of the listed panel, or on at least two kinases from at least two different molecular mechanisms of tumor progression; recombinant human kinases, 1 µM ATP
Protocol: The effect of the benzazole derivatives was tested on recombinant, human protein kinases. All protein kinases were expressed in Sf9 insect cells as human recombinant GST-fusion proteins or as His-tagged proteins by means of the baculovirus expression system. Protein kinases were purified by affinity chromatography using either GSH-agarose or Ni-NTH-agarose. The purity and identity of each was checked by SDS-PAGE/silver staining and by western blot analysis with specific antibodies. A proprietary protein kinase assay (^33PanQinase® Activity Assay) was used for measuring the kinase activity. All kinase assays were performed in 96-well FlashPlates™ in a 50 µl reaction volume. The assay for all enzymes contained 60 mM HEPES-NaOH, pH 7.5, 3 mM MgCl2, 3 mM MnCl2, 3 µM Na-orthovanadate, 1.2 mM DTT, 50 µg/ml PEG20000 and 1 µM [γ-^33P]-ATP (approx. 5x10^5 cpm per well). The reaction cocktails were incubated at 30°C for 80 minutes. The reaction was stopped with 50 µl of 2% (v/v) H3PO4, plates were aspirated and washed two times with 200 µl of 0.9% (w/v) NaCl. Incorporation of ^33Pi was determined with a microplate scintillation counter. All assays were performed with a BeckmanCoulter/ Sagian robotic system.

IC50, < 500 nM:
COc1cc2ncnc(Nc3ccc4nc(NC(=O)c5ccccc5)sc4c3)c2cc1OC [Example 2, N-[6-(6,7-Dimethoxyquinazolin-4-ylamino)benzothiazol-2-yl]benzamide]
COc1cc2ncnc(Nc3ccc4nc(NC(=O)c5ccccc5)oc4c3)c2cc1OC [Example 1, N-[6-(6,7-Dimethoxyquinazolin-4-ylamino)benzoxazol-2-yl]benzamide]
O=C(Nc1nc2cc(Nc3ncnc4nc[nH]c34)ccc2s1)c1ccccc1 [Example 11, N-[5-(Purin-6-ylamino)benzothiazol-2-yl]benzamide]
Cc1cc(Nc2ccnc(Nc3ccc4nc(NC(=O)c5ccccc5)sc4c3)n2)n[nH]1 [Example 9, N-{6-[4-(5-Methylpyrazol-3-ylamino)pyrimidin-2-ylamino]benzothiazol-2-yl}benzamide]
COc1cc2c(Nc3ccc4nc(NC(=O)c5ccccc5)sc4c3)ncnc2cc1OCCCN1CCN(C)CC1 [Example 5, N-(6-{6-Methoxy-7-[3-(4-methylpiperazin-1-yl)propoxy]quinazolin-4-yl-amino}benzothiazol-2-yl)benzamide]
